Test results published in patent US9872492B2, “(S)-abscisic acid derivatives for thinning” (Valent BioSciences Corporation, priority 2015, dated 2018).

Columns and labels:
Assay type in all cases: in vivo
Rich Lady peach = assay: Thinning study on Rich Lady peach (Yakima, Washington), Example 5; settings: for Effect on fruit size (percent fruit 125 count/box or larger), in words / Effect on hand thinning required / fruit drop, in words: 30-300 ppm 3′-methyl-(S)-abscisic acid, 300-1000 ppm S-ABA; for Harvest percent fruit 125 ct/box or larger / Number hand thinned per tree: 0.05% Regulaid surfactant; for Number hand thinned per tree: hand thinned after fruit drop period
Procedure: A study was conducted in Washington (Yakima, Wash.) to determine the effect of S-ABA and 3′-methyl-(S)-abscisic acid on Rich Lady peach thinning. In this study, the initial fruit set prior to treatment was relatively uniform across the treatment groups with the exception of the 300 ppm 3′-methyl-(S)-abscisic acid treatment that had lower fruit set. Following the treatments and a period of time for fruit to drop, the trees were hand-thinned to achieve a desired commercially optimal fruit load.

Gala apple [1] = assay: Thinning study of Gala apple (Washington), chemical thinning followed by hand thinning, Example 4; settings: in combination with 6-benzyladenine 28 g/acre; 300 ppm derivative vs 1000 ppm S-ABA
Procedure: Another thinning study of Gala apple was carried out in Washington using a procedure of chemical thinning followed by hand thinning. For chemical thinning, trees (size matched across all the treatment groups) were sprayed with 6-benzyladenine combined with S-ABA or S-ABA derivatives at about the 10 mm fruit diameter timing, as described in Example 1. After a period known as “June drop,” the trees were further thinned by hand to achieve the essentially identical fruit load that was deemed to be the appropriate crop load. This practice will ensure a uni-size apple crop. With this protocol, a lower requirement for the number of fruits removed by hand indicates a more efficacious chemical thinning treatment.

Gala apple [2] = assay: Thinning study of Gala apple (Michigan), repeat, Example 3
From the text: In a study carried out in Michigan, 3'-methyl-(S)-abscisic acid was mixed with 6-benzyladenine and compared with a mixture of S-ABA and 6-benzyladenine. 3'-Methyl-(S)-abscisic acid was formulated as a potassium salt in an aqueous. S-ABA was formulated as potassium salt in an aqueous formulation. […]®, a 2% (w/w) 6-benzyladenine formulation, was used as the source of 6-benzyladenine (“6-BA” in the following tables). The treatments were applied to McIntosh apple in fields when the fruit reached 10 mm in size. Six single tree replicates were sprayed with the equivalent of 100 gallons per acre using a motorized backpack mist blower. All the trees in the study were matched to about the same size and initial cropload. The fruit was harvested at maturity and the average fruit weights for each treatment group were recorded. The results are shown in Table 1 (the lower the number of fruits, the greater the thinning effect of the treatment). The thinning study of Gala apple was repeated in Gala in Michigan following the same protocol described in Example 1. In addition to S-ABA and 3'methyl-(S)-ABA, 3'-propargyl-(S)-ABA was also tested for this effect.

Gala apple [3] = assay: Thinning study of Gala apple (Michigan), Example 2; settings: in combination with 6-benzyladenine 28 g/acre
From the text: In a study carried out in Michigan, 3'-methyl-(S)-abscisic acid was mixed with 6-benzyladenine and compared with a mixture of S-ABA and 6-benzyladenine. 3'-Methyl-(S)-abscisic acid was formulated as a potassium salt in an aqueous. S-ABA was formulated as potassium salt in an aqueous formulation. […]®, a 2% (w/w) 6-benzyladenine formulation, was used as the source of 6-benzyladenine (“6-BA” in the following tables). The treatments were applied to McIntosh apple in fields when the fruit reached 10 mm in size. Six single tree replicates were sprayed with the equivalent of 100 gallons per acre using a motorized backpack mist blower. All the trees in the study were matched to about the same size and initial cropload. The fruit was harvested at maturity and the average fruit weights for each treatment group were recorded. The results are shown in Table 1 (the lower the number of fruits, the greater the thinning effect of the treatment). A further study was carried out in Michigan, following the same protocol as described in Example 1.

McIntosh apple = assay: Thinning study of McIntosh apple (Michigan), Example 1; settings: in combination with 6-benzyladenine 28 g/acre; 100 ppm derivative vs 1000 ppm S-ABA
From the text: In a study carried out in Michigan, 3'-methyl-(S)-abscisic acid was mixed with 6-benzyladenine and compared with a mixture of S-ABA and 6-benzyladenine. 3'-Methyl-(S)-abscisic acid was formulated as a potassium salt in an aqueous. S-ABA was formulated as potassium salt in an aqueous formulation. […]®, a 2% (w/w) 6-benzyladenine formulation, was used as the source of 6-benzyladenine (“6-BA” in the following tables). The treatments were applied to McIntosh apple in fields when the fruit reached 10 mm in size. Six single tree replicates were sprayed with the equivalent of 100 gallons per acre using a motorized backpack mist blower. All the trees in the study were matched to about the same size and initial cropload. The fruit was harvested at maturity and the average fruit weights for each treatment group were recorded. The results are shown in Table 1 (the lower the number of fruits, the greater the thinning effect of the treatment).

Structure (SMILES) | Effect on fruit size (percent fruit 125 count/box or larger), in words (Rich Lady peach) | Effect on hand thinning required / fruit drop, in words (Rich Lady peach) | Harvest percent fruit 125 ct/box or larger (Rich Lady peach; 30 ppm) | Number hand thinned per tree (Rich Lady peach; 30 ppm) | Harvest percent fruit 125 ct/box or larger (Rich Lady peach; 100 ppm) | Number hand thinned per tree (Rich Lady peach; 100 ppm) | Harvest percent fruit 125 ct/box or larger (Rich Lady peach; 300 ppm) | Number hand thinned per tree (Rich Lady peach; 300 ppm) | Thinning potency relative to S-ABA (in words) (Gala apple [1]) | Thinning potency relative to S-ABA (in words) (Gala apple [2]; in combination with 6-benzyladenine 28 g/acre, 100 ppm derivative vs 300 ppm S-ABA) | Thinning potency relative to S-ABA (in words) (Gala apple [3]) | Thinning potency relative to S-ABA (McIntosh apple) | Thinning effect, in words (Gala apple [2]; in combination with 6-benzyladenine) | Harvest percent fruit 125 ct/box or larger (Rich Lady peach; 1000 ppm) | Number hand thinned per tree (Rich Lady peach; 1000 ppm)
CC1=C(C)[C@](O)(/C=C/C(C)=C\C(=O)O)C(C)(C)CC1=O [3′-methyl-(S)-ABA, (2Z,4E)-5-((S)-1-hydroxy-2,3,6,6-tetramethyl-4-oxocyclohex-2-en-1-yl)-3-methylpenta-2,4-dienoic acid] | increases with higher use rate | caused fruit drop (thinning) | 25.0% | 61.8 per tree | 30.2% | 59.2 per tree | 37.6% | 45.4 per tree | about three times more potent than S-ABA | about three times more potent than S-ABA | more potent than S-ABA | about 10 times | – | – | –
C#CCC1=C(C)[C@](O)(/C=C/C(C)=C\C(=O)O)C(C)(C)CC1=O [3′-propargyl-(S)-ABA, (2Z,4E)-5-((S)-1-hydroxy-2,6,6-trimethyl-4-oxo-3-(prop-2-yn-1-yl)cyclohex-2-en-1-yl)-3-methylpenta-2,4-dienoic acid] | – | – | – | – | – | – | – | – | about three times more potent than S-ABA | – | – | – | caused significant thinning | – | –
CC1=CC(=O)CC(C)(C)[C@@]1(O)/C=C/C(C)=C/C(=O)O [S-ABA, (S)-abscisic acid] | small increase in the fruit size in a dose dependent manner | did not reduce the hand thinning required | – | – | – | – | 27.6% | 61.2 per tree | – | – | – | – | – | 29.7% | 67.8 per tree
